The text below walks through data of ChEMBL document CHEMBL1201862, “PubChem BioAssay data set” (2004).

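Interpolation was linear, between the two tested concentrations surrounding the appropriate level; five concentrations were tested over 48 hours in 96-well plates. Here, GI50 denotes the concentration required for 50% inhibition of growth.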 Activity calls are given as the source filed them. No stated cut-off is given here; in the data, active = GI50 up to about 1.1 µM and inactive = higher. A value given as a limit tells only on which side of the number the result lay.

Test in all cases: NCI-60 cell line screen, 48 h
The test system of assay [1] is A549.
Assay [2] has as its system ACHN.
Assay [3] has as its system COLO 205.
In assay [4] the test system is EKVX.
Assay [5] concerns HCT-15.
In assay [6] the test system is IGROV-1.
The subject of assay [7] is K562.
Assay [8] deals with LOX IMVI.
In assay [9] the test system is NCI-H226.
Assay [10] relates to OVCAR-4.
Assay [11] has as its system SF-295.
For assay [12], the system named is SF-539.
Assay [13] concerns SK-MEL-28.
The test system of assay [14] is SK-MEL-2.
Assay [15] has as its system SK-MEL-5.
The test system of assay [16] is UACC-257.

`Cc1cc(N(CCC#N)CCC#N)ccc1/N=N/c1cccc(C(=O)O)c1`: the GI50 in assay [1] is > 100 µM (inactive); in assay [2] it was > 100 µM (inactive); in assay [3], > 100 µM (inactive); in [4], > 100 µM (inactive); in assay [5] it was more than 100 µM; in assay [6] it was > 100 µM (inactive). For the same compound, the GI50 in [7], in assay [8], in assay [9], in assay [10], in assay [11] and in [12] was > 100 µM (inactive) in each case. The GI50 in [13] is 97.7 µM (inactive); in [14], > 100 µM (inactive); in assay [15] it was > 100 µM (inactive); in [16], > 100 µM (inactive).
As to `COc1cc(OC)c(C#N)c(OC)c1C`, the GI50 in assay [1], in assay [2], in [4], in assay [7], in assay [8] and in [9] was > 100 µM (inactive) in each case. The GI50 in assay [10], in [11], in assay [12], in [13], in assay [14] and in assay [15] was > 100 µM (inactive) each time. Also, the GI50 in [16] is > 100 µM (inactive).
As for `CCOC(=O)[C@H]1Nc2ccc(Cl)cc2[C@H]2OCC[C@@H]12`, the GI50 in assay [1] is > 100 µM (inactive); in assay [2], > 100 µM (inactive); in assay [3], > 100 µM (inactive); in assay [4], > 100 µM (inactive); in assay [5] it was more than 100 µM; in assay [6], > 100 µM (inactive). The GI50 in [7], in assay [8], in assay [9], in assay [10], in assay [11] and in [12] was > 100 µM (inactive) each time. Besides, the GI50 in [13] is > 100 µM (inactive); in assay [14], 75 µM (inactive); in assay [15], > 100 µM (inactive); in assay [16], > 100 µM (inactive).
In the case of `O=C(c1ccc(O)cc1O)C1C(c2ccc(O)cc2)OC(c2ccc(O)cc2)C1C(=O)c1ccc(O)cc1O` (stereo not drawn), the GI50 was > 100 µM (inactive) in assay [1]; 22.2 µM (inactive) in [2]; 21.2 µM (inactive) in assay [4]; 19.5 µM (inactive) in [8]; 17.2 µM (inactive) in [9]; 28.4 µM (inactive) in assay [10]. For the same compound, the GI50 in assay [11] was 25.5 µM (inactive); in [12], 20 µM (inactive); in assay [13] it was 19.4 µM (inactive); in assay [14], 22 µM (inactive); in [15] it was 16.1 µM (inactive); in assay [16], 20.5 µM (inactive).
Take `COC(=O)C(Cc1nc2ccccc2nc1O)C(=O)C(=O)Nc1ccc(F)cc1` (stereo not drawn): the GI50 in [1] is > 100 µM (inactive); in assay [2], > 100 µM (inactive); in [3] it was 37.9 µM (inactive); in assay [4], > 100 µM (inactive); in [5], more than 100 µM; in assay [6], 53.5 µM (inactive). Also, the GI50 in assay [8] is 41.3 µM (inactive); in assay [9], > 100 µM (inactive); in [10] it was 77.3 µM (inactive); in assay [11], > 100 µM (inactive); in [12] it was 37 µM (inactive); in [13] it was 27.4 µM (inactive). In addition, the results for the GI50 in assay [14], in assay [15] and in assay [16] were 34.4 µM (inactive), > 100 µM (inactive) and > 100 µM (inactive), respectively.
As to `CCOC(=O)CC(=O)ON(C)C(=O)Cc1ccccc1`, the GI50 is > 100 µM (inactive) in assay [1]; > 100 µM (inactive) in [2]; > 100 µM (inactive) in assay [3]; > 100 µM (inactive) in [4]; more than 100 µM in [5]; > 100 µM (inactive) in [6]. Also, the GI50 in assay [8], in assay [9], in assay [10], in assay [11], in assay [12] and in assay [14] was > 100 µM (inactive) each time. Further, the GI50 in assay [15] and in assay [16] was > 100 µM (inactive) in each case.
For `O=C(Nc1ccccc1)C(=O)C(C(=O)c1ccccc1F)C1OC(=O)c2ccccc21` (stereo not drawn), the GI50 is 37.8 µM (inactive) in assay [1]; 49.9 µM (inactive) in assay [2]; 22.4 µM (inactive) in assay [3]; 35 µM (inactive) in assay [4]; 22.9 µM in [5]; 71.4 µM (inactive) in assay [6]. Also, the GI50 in assay [7] was 44.7 µM (inactive); in assay [8] it was 27.2 µM (inactive); in assay [9] it was 25.1 µM (inactive); in assay [10], 31.6 µM (inactive); in assay [11], 47.1 µM (inactive); in assay [12], 19.3 µM (inactive). Also, the GI50 in [13] is 40.6 µM (inactive); in assay [14], 23.9 µM (inactive); in [15] it was 71.8 µM (inactive); in [16], 66.5 µM (inactive).
Take `C=C1C(=O)O[C@@H]2C[C@]3(C)[C@@H](C[C@H]12)[C@](C)(O)CC[C@@H]3O`: the GI50 in [1] was > 100 µM (inactive); in assay [2] it was > 100 µM (inactive); in [3], 38.8 µM (inactive); in [4] it was > 100 µM (inactive); in assay [5], 52.4 µM; in [6], > 100 µM (inactive). Moreover, the GI50 in assay [7] was 33.4 µM (inactive); in assay [8], 55.7 µM (inactive); in [9] it was 48.3 µM (inactive); in assay [10] it was > 100 µM (inactive); in assay [11], > 100 µM (inactive); in assay [12], 34 µM (inactive). Besides, the GI50 was 65.2 µM (inactive) in [13], 69.2 µM (inactive) in assay [14] and 91.8 µM (inactive) in assay [15].
Take `Cc1cc(O)nc(NNC(C#N)c2cccc(O)c2)n1` (stereo not drawn): the GI50 in assay [1] is > 100 µM (inactive); in assay [2], > 100 µM (inactive); in [3] it was > 100 µM (inactive); in assay [5], more than 100 µM; in [6] it was > 100 µM (inactive); in [7] it was > 100 µM (inactive). In addition, the GI50 in assay [8], in [9], in [10], in assay [11], in assay [12] and in assay [13] was > 100 µM (inactive) throughout. The GI50 in [14], in [15] and in assay [16] was > 100 µM (inactive) throughout.
For `COc1ccc(/C=C/C(=N\NC(=O)c2ccccc2)c2sc(Nc3ccc([N+](=O)[O-])cc3)nc2C)cc1OC`, the GI50 was 10.6 µM (inactive) in assay [1]; 14.7 µM (inactive) in [2]; 21.3 µM (inactive) in assay [3]; 18.6 µM (inactive) in assay [4]; 7.89 µM in assay [5]; > 10 µM (inactive) in assay [6]. Further, the GI50 in assay [7] was 3.18 µM (inactive); in assay [8] it was 3.75 µM (inactive); in [9], 18.2 µM (inactive); in assay [10], 11.6 µM (inactive); in [11] it was 11.2 µM (inactive); in [12] it was 21.1 µM (inactive). Further, the GI50 in assay [13] is 21.1 µM (inactive); in assay [14], 15.9 µM (inactive); in assay [16], 12.6 µM (inactive).
Turning to `Cn1c(=O)n(CC2CS2)c2ccccc21` (stereo not drawn), the GI50 in assay [1] is > 100 µM (inactive); in assay [2] it was > 100 µM (inactive); in assay [3] it was > 100 µM (inactive); in assay [4] it was > 100 µM (inactive); in [5], more than 100 µM; in assay [6], > 100 µM (inactive). Besides, the GI50 in assay [7], in assay [8], in assay [9], in assay [10], in assay [11] and in [12] was > 100 µM (inactive) each time. Further, the GI50 in [13] and in assay [14] was > 100 µM (inactive) throughout.
In the case of `COc1ccc(C2C(Cl)C(=O)N2NC(=O)c2ccc(N)cc2)cc1` (stereo not drawn), the GI50 in assay [1] was > 100 µM (inactive); in [2], > 100 µM (inactive); in assay [3] it was > 100 µM (inactive); in [4], > 100 µM (inactive); in [5], more than 100 µM; in [6] it was > 100 µM (inactive). For the same compound, the GI50 in [7], in assay [8], in assay [9], in assay [10], in assay [11] and in assay [12] was > 100 µM (inactive) in each case. Besides, the GI50 in [13], in assay [14], in [15] and in assay [16] was > 100 µM (inactive) each time.
In the case of `CC1(n2nc(-c3ccccc3)n(-c3ccccc3)c2=O)CSC1`, the GI50 in assay [1] was > 100 µM (inactive); in [2], > 100 µM (inactive); in assay [3], > 100 µM (inactive); in assay [4], > 100 µM (inactive); in [5] it was more than 100 µM; in assay [6], > 100 µM (inactive). The GI50 in [7], in assay [8], in assay [9], in assay [10], in [11] and in assay [12] was > 100 µM (inactive) each time. Besides, the GI50 in [13], in assay [14], in [15] and in assay [16] was > 100 µM (inactive) throughout.
